Measured values reported in patent publication US9346786B2, “Pyrrolidine compounds” (Hoffmann-La Roche Inc., priority 2009, dated 2016).

Molecular target: recombinant human NK3 receptor (Homo sapiens (Human), UniProt P29371)
Experiment: biochemical
Assay type: binding
Settings: [3H]SR142801, membranes of HEK293 cells transiently expressing recombinant human NK3 receptor; read-out: Data Ki (hNK-3 receptor affinity)
Experimental: [^3H]SR142801 Competition Binding Assay
hNK3 receptor binding experiment were performed using [^3H]SR142801 (Catalog No. TRK1035, specific activity: 74.0 Ci/mmol, Amersham, GE Healthcare UK limited, Buckinghamshire, UK) and membrane isolated from HEK293 cells transiently expressing recombinant human NK3 receptor. After thawing, the membrane homogenates were centrifuged at 48,000×g for […] at 4° C., the pellets were resuspended in the 50 mM Tris-HCl, 4 mM MnCl2, 1 μM phosphoramidon, 0.1% BSA binding buffer at pH 7.4 to a final assay concentration of 5 μg protein/well. For inhibition experiments, membranes were incubated with [^3H]SR142801 at a concentration equal to KD value of radioligand and 10 concentrations of the inhibitory compound (0.0003-10 μM) (in a total reaction volume of 500 μl) for 75 min at room temperature (RT). At the end of the incubation, membranes were filtered onto unitfilter (96-well white microplate with bonded GF/C filter preincubated 1 h in 0.3% PEI+0.3% BSA, Packard BioScience, Meriden, Conn.) with a Filtermate 196 harvester (Packard BioScience) and washed 4 times with ice-cold 50 mM Tris-HCl, pH 7.4 buffer. Nonspecific binding was measured in the presence of 10 μM SB222200 for both radioligands. The radioactivity on the filter was counted (5 min) on a Packard Top-count microplate scintillation counter with quenching correction after addition of 45 μl of microscint 40 (Canberra Packard S.A., Zürich, Switzerland) and shaking for 1 h. Inhibition curves were fitted according to the Hill equation: y=100/(1+(x/IC50)^nH), where nH=slope factor using Excel-fit 4 software (Microsoft). IC50 values were derived from the inhibition curve and the affinity constant (Ki) values were calculated using the Cheng-Prussoff equation Ki=IC50/(1+[L]/KD) where [L] is the concentration of radioligand and KD is its dissociation constant at the receptor, derived from the saturation isotherm. All experiments were performed in duplicate and the mean±standard error (SEM) of the individual Ki values was calculated.

Sequence of recombinant human NK3 receptor (P29371 whole entry): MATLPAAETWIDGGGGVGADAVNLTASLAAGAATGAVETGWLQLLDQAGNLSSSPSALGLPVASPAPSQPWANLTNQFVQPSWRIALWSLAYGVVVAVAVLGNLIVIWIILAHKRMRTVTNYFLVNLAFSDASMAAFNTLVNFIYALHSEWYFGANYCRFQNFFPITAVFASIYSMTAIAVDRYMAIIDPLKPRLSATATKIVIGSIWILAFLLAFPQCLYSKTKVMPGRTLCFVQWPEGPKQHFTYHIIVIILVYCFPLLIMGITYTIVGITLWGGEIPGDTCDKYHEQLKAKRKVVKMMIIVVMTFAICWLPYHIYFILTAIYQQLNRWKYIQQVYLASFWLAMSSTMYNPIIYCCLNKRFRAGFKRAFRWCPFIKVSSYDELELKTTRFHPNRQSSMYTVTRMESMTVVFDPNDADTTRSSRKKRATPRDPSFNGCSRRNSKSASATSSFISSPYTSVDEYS

Structure (SMILES) | Ki [nM]
CCN(C(=O)Oc1ccc(F)cc1)[C@H]1CN(C(=O)C2CCN(c3ccc(C#N)cn3)CC2)C[C@@H]1c1ccc(Cl)cc1 [Example 22, [(3R,4S)-4-(4-Chloro-phenyl)-1-(5′-cyano-3,4,5,6-tetrahydro-2H-[1,2′]bipyridinyl-4-carbonyl)-pyrrolidin-3-yl]-ethyl-carbamic acid 4-fluoro-phenyl ester] | 25
CC(C)N(C(=O)Oc1ccc(F)cc1)[C@@H]1CN(C(=O)C2CCN(c3ccc(C#N)cn3)CC2)C[C@H]1c1ccc(Cl)cc1 [Example 23, [(3S,4R)-4-(4-Chloro-phenyl)-1-(5′-cyano-3,4,5,6-tetrahydro-2H-[1,2′]bipyridinyl-4-carbonyl)-pyrrolidin-3-yl]-isopropyl-carbamic acid 4-fluoro-phenyl ester] | 21
CC(=O)c1ccc(N2CCC(C(=O)N3C[C@@H](N(C(=O)Oc4ccc(F)cc4)C(C)C)[C@H](c4ccc(Cl)cc4)C3)CC2)nc1 [Example 24, [(3S,4R)-1-(5′-Acetyl-3,4,5,6-tetrahydro-2H-[1,2′]bipyridinyl-4-carbonyl)-4-(4-chloro-phenyl)-pyrrolidin-3-yl]-isopropyl-carbamic acid 4-fluoro-phenyl ester] | 62
CC(C)N(C(=O)Oc1ccc(F)cc1)[C@@H]1CN(C(=O)C2CCN(c3ccc(C(F)(F)F)cn3)CC2)C[C@H]1c1ccc(Cl)cc1 [Example 25, [(3S,4R)-4-(4-Chloro-phenyl)-1-(5′-trifluoromethyl-3,4,5,6-tetrahydro-2H-[1,2′]bipyridinyl-4-carbonyl)-pyrrolidin-3-yl]-isopropyl-carbamic acid 4-fluoro-phenyl ester] | 112
CC(C)N(C(=O)Oc1ccc(F)cc1)[C@@H]1CN(C(=O)C2CCN(c3ccc(C#N)nn3)CC2)C[C@H]1c1ccc(Cl)cc1 [Example 26, {(3S,4R)-4-(4-Chloro-phenyl)-1-[1-(6-cyano-pyridazin-3-yl)-piperidine-4-carbonyl]-pyrrolidin-3-yl}-isopropyl-carbamic acid 4-fluoro-phenyl ester] | 46
CC(C)N(C(=O)Oc1ccc(F)cc1)[C@@H]1CN(C(=O)C2CCN(c3cnc(C#N)cn3)CC2)C[C@H]1c1ccc(Cl)cc1 [Example 27, {(3S,4R)-4-(4-Chloro-phenyl)-1-[1-(5-cyano-pyrazin-2-yl)-piperidine-4-carbonyl]-pyrrolidin-3-yl}-isopropyl-carbamic acid 4-fluoro-phenyl ester] | 47
CC(C)N(C(=O)Oc1ccc(F)cc1)[C@H]1CN(C(=O)C2CCN(c3ccc(C#N)cn3)CC2)C[C@@H]1c1ccc(Cl)cc1 [Example 28, [(3R,4S)-4-(4-Chloro-phenyl)-1-(5′-cyano-3,4,5,6-tetrahydro-2H-[1,2′]bipyridinyl-4-carbonyl)-pyrrolidin-3-yl]-isopropyl-carbamic acid 4-fluoro-phenyl ester] | 50
N#Cc1ccc(N2CCC(C(=O)N3C[C@@H](N(C(=O)Oc4ccc(F)cc4)C4CC4)[C@H](c4ccc(Cl)cc4)C3)CC2)nc1 [Example 29, [(3S,4R)-4-(4-Chloro-phenyl)-1-(5′-cyano-3,4,5,6-tetrahydro-2H-[1,2′]bipyridinyl-4-carbonyl)-pyrrolidin-3-yl]-cyclopropyl-carbamic acid 4-fluoro-phenyl ester] | 12
CC(=O)c1ccc(N2CCC(C(=O)N3C[C@@H](N(C(=O)Oc4ccc(F)cc4)C4CC4)[C@H](c4ccc(Cl)cc4)C3)CC2)nc1 [Example 30, [(3S,4R)-1-(5′-Acetyl-3,4,5,6-tetrahydro-2H-[1,2′]bipyridinyl-4-carbonyl)-4-(4-chloro-phenyl)-pyrrolidin-3-yl]-cyclopropyl-carbamic acid 4-fluoro-phenyl ester] | 35
N#Cc1ccc(N2CCC(C(=O)N3C[C@H](c4ccc(Cl)cc4)[C@@H](N(C(=O)Oc4ccc(F)cc4)C4CC4)C3)CC2)nc1 [Example 34, [(3R,4S)-4-(4-Chloro-phenyl)-1-(5′-cyano-3,4,5,6-tetrahydro-2H-[1,2′]bipyridinyl-4-carbonyl)-pyrrolidin-3-yl]-cyclopropyl-carbamic acid 4-fluoro-phenyl ester] | 116
CCN(C(=O)Oc1ccc(F)cc1)[C@@H]1CN(C(=O)C2CCN(c3ccc(C#N)cn3)CC2)C[C@H]1c1ccc(F)cc1 [Example 35, [(3S,4R)-1-(5′-Cyano-3,4,5,6-tetrahydro-2H-[1,2′]bipyridinyl-4-carbonyl)-4-(4-fluoro-phenyl)-pyrrolidin-3-yl]-ethyl-carbamic acid 4-fluoro-phenyl ester] | 4
CCN(C(=O)Oc1ccc(F)cc1)[C@@H]1CN(C(=O)C2CCN(c3ccc(S(C)(=O)=O)cn3)CC2)C[C@H]1c1ccc(F)cc1 [Example 37, Ethyl-[(3S,4R)-4-(4-fluoro-phenyl)-1-(5′-methanesulfonyl-3,4,5,6-tetrahydro-2H-[1,2′]bipyridinyl-4-carbonyl)-pyrrolidin-3-yl]-carbamic acid 4-fluoro-phenyl ester] | 8
CCN(C(=O)Oc1ccc(F)cc1)[C@@H]1CN(C(=O)C2CCN(C(=O)OC(C)(C)C)CC2)C[C@H]1c1ccc(Cl)c(F)c1 [Example 39, 4-{(3R,4S)-3-(4-Chloro-3-fluoro-phenyl)-4-[ethyl-(4-fluoro-phenoxycarbonyl)-amino]-pyrrolidine-1-carbonyl}-piperidine-1-carboxylic acid tert-butyl ester] | 4
CCN(C(=O)Oc1ccc(F)cc1)[C@@H]1CN(C(=O)C2CCN(c3ccc(C#N)cn3)CC2)C[C@H]1c1ccc(Cl)c(F)c1 [Example 40, [(3S,4R)-4-(4-Chloro-3-fluoro-phenyl)-1-(5′-cyano-3,4,5,6-tetrahydro-2H-[1,2′]bipyridinyl-4-carbonyl)-pyrrolidin-3-yl]-ethyl-carbamic acid 4-fluoro-phenyl ester] | 0.7
CCN(C(=O)Oc1ccc(F)cc1)[C@@H]1CN(C(=O)C2CCN(c3ccc(Cl)cn3)CC2)C[C@H]1c1ccc(Cl)c(F)c1 [Example 41, [(3S,4R)-4-(4-Chloro-3-fluoro-phenyl)-1-(5′-chloro-3,4,5,6-tetrahydro-2H-[1,2′]bipyridinyl-4-carbonyl)-pyrrolidin-3-yl]-ethyl-carbamic acid 4-fluoro-phenyl ester] | 0.6
CCN(C(=O)Oc1ccc(F)cc1)[C@@H]1CN(C(=O)C2CCN(c3ccc(C(F)(F)F)cn3)CC2)C[C@H]1c1ccc(Cl)c(F)c1 [Example 42, [(3S,4R)-4-(4-Chloro-3-fluoro-phenyl)-1-(5′-trifluoromethyl-3,4,5,6-tetrahydro-2H-[1,2′]bipyridinyl-4-carbonyl)-pyrrolidin-3-yl]-ethyl-carbamic acid 4-fluoro-phenyl ester] | 2

Same assay, conditions: read-out: Data Ki (hNK-3 receptor affinity)

Structure (SMILES) | Ki [nM]
O=C(C1CCN(c2ccc(C(F)(F)F)cn2)CC1)N1C[C@@H](N(C(=O)Oc2ccc(F)cc2)C2CC2)[C@H](c2ccc(Cl)cc2)C1 [Example 31, [(3S,4R)-4-(4-Chloro-phenyl)-1-(5′-trifluoromethyl-3,4,5,6-tetrahydro-2H-[1,2′]bipyridinyl-4-carbonyl)-pyrrolidin-3-yl]-cyclopropyl-carbamic acid 4-fluoro-phenyl ester] | 57
N#Cc1ccc(N2CCC(C(=O)N3C[C@@H](N(C(=O)Oc4ccc(F)cc4)C4CC4)[C@H](c4ccc(Cl)cc4)C3)CC2)nn1 [Example 32, {(3S,4R)-4-(4-Chloro-phenyl)-1-[1-(6-cyano-pyridazin-3-yl)-piperidine-4-carbonyl]-pyrrolidin-3-yl}-cyclopropyl-carbamic acid 4-fluoro-phenyl ester] | 52
N#Cc1cnc(N2CCC(C(=O)N3C[C@@H](N(C(=O)Oc4ccc(F)cc4)C4CC4)[C@H](c4ccc(Cl)cc4)C3)CC2)cn1 [Example 33, {(3S,4R)-4-(4-Chloro-phenyl)-1-[1-(5-cyano-pyrazin-2-yl)-piperidine-4-carbonyl]-pyrrolidin-3-yl}-cyclopropyl-carbamic acid 4-fluoro-phenyl ester] | 48
CCN(C(=O)Oc1ccc(F)cc1)[C@@H]1CN(C(=O)C2CCN(c3ccc(Cl)cn3)CC2)C[C@H]1c1ccc(F)cc1 [Example 36, [(3S,4R)-1-(5′-Chloro-3,4,5,6-tetrahydro-2H-[1,2′]bipyridinyl-4-carbonyl)-4-(4-fluoro-phenyl)-pyrrolidin-3-yl]-ethyl-carbamic acid 4-fluoro-phenyl ester] | 10
CCN(C(=O)Oc1ccc(F)cc1)[C@@H]1CN(C(=O)C2CCN(c3ccc(C(C)=O)cn3)CC2)C[C@H]1c1ccc(F)cc1 [Example 38, [(3S,4R)-1-(5′-Acetyl-3,4,5,6-tetrahydro-2H-[1,2′]bipyridinyl-4-carbonyl)-4-(4-fluoro-phenyl)-pyrrolidin-3-yl]-ethyl-carbamic acid 4-fluoro-phenyl ester] | 7
